In publication PMC3146629 (2011):

Target: HSPA8 (Hsc70) (Bos taurus, UniProt P19120)
Assay: […]-1H TROSY NMR titration
Type: binding

HSPA8 (Hsc70), sequence (P19120 1-383): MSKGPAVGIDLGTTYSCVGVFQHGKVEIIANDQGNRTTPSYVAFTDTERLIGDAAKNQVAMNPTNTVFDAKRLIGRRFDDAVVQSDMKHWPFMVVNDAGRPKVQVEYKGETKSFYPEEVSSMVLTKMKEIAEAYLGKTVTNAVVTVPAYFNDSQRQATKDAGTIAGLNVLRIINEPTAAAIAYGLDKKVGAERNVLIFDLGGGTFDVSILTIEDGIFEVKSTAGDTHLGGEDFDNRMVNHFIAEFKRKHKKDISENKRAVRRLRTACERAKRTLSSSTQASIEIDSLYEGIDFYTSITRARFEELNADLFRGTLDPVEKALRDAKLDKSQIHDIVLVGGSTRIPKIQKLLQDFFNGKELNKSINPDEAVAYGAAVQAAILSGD

SMILES: CCn1c(=Cc2cccc[n+]2CC)sc(=C2Sc3ccccc3N2C)c1=O [MKT-077, 1-ethyl-2-[[3-ethyl-5-(3-methylbenzothiazolin-2-yliden)]-4-oxothiazolidin-2-ylidenemethyl] pyridinium chloride]
- Kd: < 10 µM
